The source of these data is paper PMC11952234, “Functional profiling of synthetic camel milk-derived peptides with implication in glucose transport and diabetes” (PLOS One, 2025).

Test [1] deals with T1, insulin receptor (IR); interaction of IR-Rluc with IRS1-YFP in HEK293 cells (Homo sapiens, UniProt P06213).
T1 construct: expressed in transfected cells; host or cells: HEK293 cells, transient co-transfection; plasmids provided by Dr. Tarik Issad (Cochin Institute, Paris)
Put plainly: BRET assay of IR activation (IR-Rluc/IRS1-YFP), single treatment, dose-response. Conditions: HEK293, 1 hour, 37°C, minimal data set for Figure 1, average. It counts as cell-based. The procedure: (§1) HepG2 and HEK293 cells were maintained at 37°C, 5% CO2 in complete RPMI and Dulbecco’s modified Eagle’s medium (DMEM), respectively, containing 0.3 mg/ml glutamine, 100 IU/ml penicillin, and 100 µg/ml streptomycin) supplemented with 10% fetal calf serum (Gibco, Carlsbad, CA, USA). The transient transfection in HEK293 cells was carried out in 75 cm flask containing 10^7 cells using Lipofectamine 2000 and 5 µg of IR-Rluc and 5 µg of IRS1-YFP (for BRET and phosphorylation experiments) as previously described. All assays were performed 48 hours post-transfection.
(§2) BRET technology was used for IR activation and its interaction with IRS1 as previously described. […] Following treatments, 10 μl of Coelenterazine h was added to a final concentration of 5 µ M and BRET measurements were carried out using the Tristar 2 multi-label plate reader (Berthold, Germany), allowing luminescence recording and signal integration at 480 nm and 540 nm.
(§3) Statistical analyses were performed statistical significance between the different treatments and conditions as indicated in the figures and tables and their captions. […] The significance is indicated in the figures by stars (****p-value < 0.0001, ***p-value < 0.001, ** p-value < 0.01, * p-value < 0.05), and the absence of stars means non-significant (p-value > 0.05). However, the two-way ANOVA was used for multiple comparisons to determine the statistical significance between the different peptides when compared to each other in the different assays as described in the tables.

In test [2] the test system is insulin receptor (IR); insulin-induced IR-Rluc/IRS1-YFP BRET in HEK293 cells. Put plainly: BRET assay of IR activation, peptides combined with insulin. The class given is cell-based, human. The settings on record: for insulin-induced BRET, % of insulin's response in the vehicle, Average: Average of Experiments 1-7; for insulin-induced BRET, % of insulin's response in the vehicle, Average / insulin-induced BRET, % of insulin's response in the vehicle / % of maximal BRET (insulin-induced): 1 μM insulin + 0.1 mg/ml peptide; for insulin-induced BRET, % of insulin's response in the vehicle, Average / insulin-induced BRET, % of insulin's response in the vehicle: HEK293, minimal data set for Figure 2; for % of maximal BRET (insulin-induced) / profile on insulin-dependent BRET response in combined treatment (in words): HEK293 cells; for % of maximal BRET (insulin-induced): 1 hour, 37°C, % of insulin's response in the vehicle taken as 100%, mean ± SD of five to seven independent experiments in triplicate; for profile on insulin-dependent BRET response in combined treatment (in words): 0.1 mg/ml peptide + 1 μM insulin, compared to insulin alone (Vehicle). How it is done: as §1, §2
as §3, with “For BRET, the data were normalized by taking as 100% of the maximal insulin-induced BRET signal in the vehicle and analyzed using GraphPad Prism software (San Diego, CA, USA). Statistical” for “Statistical”, “tables. In this case, the different letters indicate statistically significant effects (p-value < 0.05), while the same letters indicate no significant difference between the different treatments compared to each other.” for “tables.”

Test [3] relates to HepG2 cells. Put plainly: Glucose uptake assay (Glucose Uptake-Glo) in HepG2 cells. The settings on record: 1 hour, 37°C; for glucose uptake, specific luminescence signal, Average: Average of Experiments 1-5, HepG2, 0.1 mg/ml peptide or 1 μM insulin, minimal data set for Figure 5; for % of glucose uptake: HepG2 cells, 0.1 mg/ml peptide or 1 μM insulin, % of insulin's response taken as 100%, mean ± SD of five independent experiments in triplicate. It counts as cell-based, human. How it is done:
Glucose uptake in HepG2 cells was carried out using Glucose Uptake-Glo Assay (Promega). For this, cells seeded in a 96-well white plate (50,000 cells/well) were first washed with PBS and starved in phenol red-, glucose-, and serum-free medium (Dulbecco’s modified Eagle’s medium containing 0.01 mM HEPES, 0.3 mg/ml glutamine, 100 IU/ml penicillin, and 100 µg/ml streptomycin). […] The treatment was removed, and the cells were washed once with PBS and then incubated with 50 μL/well of freshly prepared 2-deoxyglucose (500 μM) for 10 minutes at room temperature. The uptake process was stopped and neutralized, followed by the addition of 50 μl/well of 2-deoxyglucose-6-phosphate (2DG6P) detection reagent and incubation for 15-60 minutes at room temperature. The glucose-6-phosphate dehydrogenase (G6PDH) oxidizes 2DG6P to 6-phosphodeoxygluconate (6PDG) and reduces NADP + to NADPH. The reductase uses NADPH to convert the proluciferin to luciferin, which is then used by Ultra-Glo™ recombinant luciferase to produce luminescence. This luminescence, proportional to the amount of 2-deoxyglucose transported inside the cells upon treatment, was then measured using a 0.3–1 second integration on GloMax® Discover luminometer according to Glucose Uptake-Glo™ protocol.

[4] abbreviates: HEK293, read-out: BRET, % of the maximal response of insulin, Average, peptide 0.001 mg/ml.
[5] abbreviates: HEK293, read-out: BRET, % of the maximal response of insulin, Average, peptide 0.005 mg/ml.
Setting [6] is: HEK293, read-out: BRET, % of the maximal response of insulin, Average, peptide 0.01 mg/ml.
The mark [7] stands for this setting: HEK293, read-out: BRET, % of the maximal response of insulin, Average, peptide 0.05 mg/ml.
Where [8] appears, read: HEK293, read-out: BRET, % of the maximal response of insulin, Average, peptide 0.1 mg/ml.
Where [9] appears, read: HEK293, read-out: BRET, % of the maximal response of insulin, Average, peptide 0.5 mg/ml.
[10] abbreviates: HEK293, read-out: BRET, % of the maximal response of insulin, Average, peptide 1 mg/ml.

Read-outs that look alike come from different tables or passages of the source. Marks after values point to notes of the source that are not given here. Residues, ends and D or L forms follow the SMILES beside them.

T1 sequence (P06213 28-758 limits assumed): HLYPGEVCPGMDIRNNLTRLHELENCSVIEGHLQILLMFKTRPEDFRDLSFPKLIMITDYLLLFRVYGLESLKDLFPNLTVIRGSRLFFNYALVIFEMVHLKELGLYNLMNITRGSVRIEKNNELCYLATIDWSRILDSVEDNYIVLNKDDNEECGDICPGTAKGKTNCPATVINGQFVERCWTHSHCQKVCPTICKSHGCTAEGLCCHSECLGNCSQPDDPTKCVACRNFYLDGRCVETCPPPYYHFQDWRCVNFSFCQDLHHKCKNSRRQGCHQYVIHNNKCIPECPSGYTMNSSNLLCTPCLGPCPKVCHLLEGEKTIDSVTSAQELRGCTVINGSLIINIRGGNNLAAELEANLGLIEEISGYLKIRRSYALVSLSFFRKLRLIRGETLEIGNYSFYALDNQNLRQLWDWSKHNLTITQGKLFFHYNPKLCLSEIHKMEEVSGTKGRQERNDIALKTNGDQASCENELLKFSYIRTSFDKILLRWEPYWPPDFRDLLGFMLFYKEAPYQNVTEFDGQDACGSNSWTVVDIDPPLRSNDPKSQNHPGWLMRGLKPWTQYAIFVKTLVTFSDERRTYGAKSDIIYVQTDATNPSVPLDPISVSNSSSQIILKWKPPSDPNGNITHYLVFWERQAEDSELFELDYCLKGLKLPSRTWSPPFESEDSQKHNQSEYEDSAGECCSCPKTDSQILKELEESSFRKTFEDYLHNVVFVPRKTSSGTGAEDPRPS
T1 sequence (P06213 763-1382 limits assumed): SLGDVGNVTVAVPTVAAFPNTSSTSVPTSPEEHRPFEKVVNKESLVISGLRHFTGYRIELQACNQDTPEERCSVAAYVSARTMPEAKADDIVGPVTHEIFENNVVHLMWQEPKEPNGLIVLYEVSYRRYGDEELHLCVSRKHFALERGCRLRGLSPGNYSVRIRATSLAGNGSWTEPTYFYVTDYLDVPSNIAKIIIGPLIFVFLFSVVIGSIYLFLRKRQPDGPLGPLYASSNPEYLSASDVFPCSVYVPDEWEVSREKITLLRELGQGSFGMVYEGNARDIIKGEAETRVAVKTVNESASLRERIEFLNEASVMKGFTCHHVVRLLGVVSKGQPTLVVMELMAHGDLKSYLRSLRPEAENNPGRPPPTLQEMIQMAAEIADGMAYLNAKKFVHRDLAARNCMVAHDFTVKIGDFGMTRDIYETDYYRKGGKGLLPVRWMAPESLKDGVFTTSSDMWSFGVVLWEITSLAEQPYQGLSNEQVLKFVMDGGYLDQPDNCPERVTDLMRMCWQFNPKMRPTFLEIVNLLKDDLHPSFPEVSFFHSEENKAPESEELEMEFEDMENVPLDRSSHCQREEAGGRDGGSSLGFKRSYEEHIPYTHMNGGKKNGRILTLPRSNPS

With `CC(C)C[C@H](NC(=O)[C@H](Cc1ccccc1)NC(=O)[C@@H]1CCCN1C(=O)[C@H](CCCNC(=N)N)NC(=O)[C@@H](N)CC(C)C)C(=O)O` [Peptide P1, LRPFL] (H-LRPFL-OH), the Emax in test [1] (setting [4]) was 10.1%; in test [1] (setting [5]) it was 16.5%; in test [1] (setting [6]) it was 37.6%; in test [1] (setting [7]) it was 43%; in test [1] (setting [8]) it was 58.5%; in test [1] (setting [9]), 56.7%. For the same molecule, the Emax in test [1] (setting [10]) worked out at 55.3%. Further, the “insulin-induced BRET, % of insulin's response in the vehicle, Average” value (“insulin-induced BRET, % … Average” for short) in test [2] came to 103.6. In addition, the “insulin-induced BRET, % of insulin's response in the vehicle” value worked out at 73.6 in test [2] (Experiment 1); 47.0 in test [2] (Experiment 2); 66.9 in test [2] (Experiment 3); 125.9 in test [2] (Experiment 4); 98.2 in test [2] (Experiment 5); 190.8 in test [2] (Experiment 6). In addition, the “insulin-induced BRET, % of insulin's response in the vehicle” value in test [2] (Experiment 7) is given as 122.6. Further, the “% of maximal BRET (insulin-induced)” value in test [2] is 104 ± 18^a %. In addition, the “profile on insulin-dependent BRET response in combined treatment (in words)” value (from here on “profile”) in test [2] is on record as “non-efficient”. The “glucose uptake, specific luminescence signal, Average” value (“glucose uptake … Average” below) in test [3] is listed as 1669300. In test [3], the “% of glucose uptake” value is 66 ± 18^b %.
`CC(C)C[C@H](N)C(=O)N1CCC[C@H]1C(=O)N[C@H](C(=O)N1CCC[C@H]1C(=O)N[C@@H](CCC(N)=O)C(=O)O)C(C)C` [Peptide P3, LPVPQ] (H-LPVPQ-OH; N-terminus and C-terminus assumed): the Emax in test [1] (setting [4]) was determined as 6%; in test [1] (setting [5]) it was 11%; in test [1] (setting [6]), 19.1%; in test [1] (setting [7]) it was 48.8%; in test [1] (setting [8]) it was 47.7%; in test [1] (setting [9]), 46.3%. In addition, in test [1] (setting [10]), the Emax came out at 41.4%. The “insulin-induced BRET, % … Average” value in test [2] was 110.8. Also, the “insulin-induced BRET, % of insulin's response in the vehicle” value in test [2] (Experiment 1) stood at 81.5; in test [2] (Experiment 2) it was 130.9; in test [2] (Experiment 3), 81.8; in test [2] (Experiment 4) it was 135.0; in test [2] (Experiment 5) it was 93.0; in test [2] (Experiment 6), 152.3. For the same molecule, in test [2] (Experiment 7), the “insulin-induced BRET, % of insulin's response in the vehicle” value is 100.8. The “% of maximal BRET (insulin-induced)” value in test [2] was 111 ± 11^a %. For the same molecule, the “profile” value in test [2] is on record as “non-efficient”. In addition, the “glucose uptake … Average” value in test [3] was 1788200. In test [3], the “% of glucose uptake” value is 71 ± 12^b %.
With `CC[C@H](C)[C@H](NC(=O)[C@@H]1CCCN1C(=O)[C@@H](N)Cc1ccc(O)cc1)C(=O)O` [Peptide P9, YPI] (H-Tyr-Pro-Ile-OH; N-terminus and C-terminus assumed), the Emax was 3.3% in test [1] (setting [4]); 14.7% in test [1] (setting [5]); 24.7% in test [1] (setting [6]); 29.3% in test [1] (setting [7]); 40.2% in test [1] (setting [8]); 39.3% in test [1] (setting [9]). Also, the Emax in test [1] (setting [10]) was found to be 31.7%. Also, the “insulin-induced BRET, % … Average” value in test [2] was 108.5. In addition, the “insulin-induced BRET, % of insulin's response in the vehicle” value in test [2] (Experiment 1) turned out to be 96.6; in test [2] (Experiment 2) it was 93.8; in test [2] (Experiment 3), 107.9; in test [2] (Experiment 4), 136.4; in test [2] (Experiment 5), 113.3; in test [2] (Experiment 6), 127.9. Also, in test [2] (Experiment 7), the “insulin-induced BRET, % of insulin's response in the vehicle” value was 83.8. For the same molecule, the “% of maximal BRET (insulin-induced)” value in test [2] was 109 ± 7^a %. Besides, in test [2], the “profile” value is recorded as “non-efficient”. Moreover, the “glucose uptake … Average” value in test [3] is 2361900.
As for Human insulin [reference compound], the “% of maximal BRET (insulin-induced)” value in test [2] is given as 100^a %. Moreover, in test [3], the “glucose uptake … Average” value is listed as 2522500 and the “% of glucose uptake” value was 100^a %.
